From patent US12638451B2, “Genetic amplified tumor homing nanoparticles and compositions and methods thereof” (priority 2019, dated 2026)

System: xenograft models of prostate cancer
Assay: In vivo antitumor efficacy
Parameters: species or system mice
Details: Dox 22 μg/mL or Tf-Dox containing 5 μg/mL Dox i.v.; Ad.DD3 intratumoral 7 days before; 14 days observation
From the text: To study the in vivo enhancement effect of the genetic probes on the antitumor efficacy of Tf-Dox, we first established xenograft models of prostate cancer by subcutaneous injection of LNCap tumor cells (about 1×10^6) in Matrigel (BD Biosciences; 1/1) into the left shoulder of BALB/c male mice. […] During 14 days of observation, we monitored the tumor volumes according to the following formula: V=a×b^2/2 where a and b were the longest and shortest diameters of the tumor, respectively, measured using a Vernier caliper. […] The reduced injection dose, in turn, is promising to lower down the distribution and biotoxicity of drugs towards the normal tissues. […] Thus, the optimized therapy outcome of the gene-nanoparticle synergetic strategy is resulted from the enhanced tumor homing ability of the nanoparticles leading to higher DOX accumulation in the tumor cells rather than the antitumor effect of the gene probes.
Xenograft models of prostate cancer were established by subcutaneous injection of LNCap tumor cells (about 1×10^6) in Matrigel (BD Biosciences; 1/1) into the left shoulder of BALB/c male mice. […] Changes in tumor volume and body weight were monitored at several scheduled time-points. The volume of the tumor was calculated according to the following formula: V=a×b^2/2 where a and b were the longest and shortest diameters of tumor, respectively, measured using a Vernier calliper. […]

Tf-Dox
Tumor volume / tumor inhibition: an increase of tumor volume was visualized
